Reference: US20230053649A1 (Cedilla Therapeutics, Inc., priority 2021, published 2023)

How the values were obtained:
[1] = system: EGFR-mutant NSCLC PC-9 cells; assay: Apoptosis (caspase-3/7, IncuCyte) in combination with EGFR inhibitor Osimertinib; format: cell-based
Description: Apoptosis was detected by CellEvent Caspase 3/7 Green ReadyProbes Reagent (ThermoFisher), a fluorogenic indicator of activated caspase-3/7. Cell death (apoptsis) and cell growth (phase confluence) over time were captured by IncuCyte live cell imaging system (Essen Bioscience) and quantified by IncuCyte S3 software (Essen Bioscience). Apoptotic Index was calculated by dividing apoptosis signal with phase confluence.

[2] = system: mesothelioma cell line NCI-H226; assay: 72H TEAD Proliferation Assay (Cell Titer-Glo 2.0); format: cell-based; conditions: Homo sapiens, CTG 2.0, cell line not given in Table 1 (NCI-H226 TEAD-responsive, NCI-H28 non-responsive counter-screen)
Description: 72H TEAD Proliferation Assay.
The effect of TEAD inhibition on cell proliferation was assayed using Cell Titer Glo (CTG) 2.0 to measure response in mesothelioma cell lines NCI-H226 (ATCC, #CRL-5826) and NCI-H28 (ATCC, #CRL-5820).
The 72H TEAD Proliferation assay utilizes Cell Titer-Glo 2.0 (Promega, #G9243) to measure the proliferation of cells in the presence or absence of compound. Cell Titer-Glo 2.0 determines the amount of viable cells by quantifying ATP (an indication of metabolically active cells). It utilizes the conversion of Luciferin to Oxyluciferin and a luminescent signal with the use of ATP to report the quantity of viable cells in culture. Within cells that are continually growing, ATP is being synthesized to meet their metabolic demands, meanwhile the opposite is true for cells that are dying or slowing down their proliferation and either no longer using ATP or are using less, respectively. The NF2-deficient NCI-H226 has been genetically validated as a cell line that is sensitive to TEAD inhibition. The NF2-wild type NCI-H28 has been genetically validated as a cell line that is not sensitive to TEAD inhibition and grows independently of TEAD activity.
Compounds were screened against the responsive NCI-H226 cell line to assess the compounds' ability to inhibit TEAD and cell growth. Compounds were also screened against the non-responsive NCI-H28 cell line to ascertain whether the inhibition of cell growth was due to inhibition of the target TEAD or whether the inhibition was due to off-target cytotoxicity.
Both NCI-H226 and NCI-H28 cells were grown at 37° C. with 5% CO2 using Growth Medium 1.
Anti-proliferative effect of compounds that inhibits TEAD activity measured by CTG
1) Assay ready plates (ARPs) were prepared by Echo acoustic liquid handler. For each compound, duplicate of 10-point half-log dilution series were dispensed in a 384-well microplate (Corning 3571).
3) Before use, ARPs were allowed to warm up to room temperature for 30 min.
4) ARPs were spun for 5 minutes at 1500RPM before removing the plate seals.
5) NCI-H226 or NCI-H28 cells were harvested from culture in Assay Medium 1 and the multidrop Combi reagent dispenser was used to seed cells at 500 cells per 50ul in each well of the ARPs and one Corning 3571 plate without compounds for Time 0 (TO) readout.
6) The TO plate was incubated for 2 hours at 37° C. with 5% CO2 to allow cells to settle, then the CTG Assay was performed.
7) All ARPs were incubated for 72 hours at 37° C. with 5% CO2, then the CTG Assay was performed for Time 72H (T72) readout.
8) CTG Assay: Bravo liquid handler (Agilent) was used to add 25ul of CTG 2.0 to all columns of the plate except for Column 24, which was used to subtract out the background. After CTG addition, plates were placed on shaker at 800RPM for 15 minutes at room temperature and kept in the dark. Luminescence was measured using EnVision multilabel plate reader with ultra-sensitive detection module.
9) Data Analysis: First background luminescence (no CTG wells) was subtracted from luminescence reading of all wells, then TO luminescence was subtracted from T72 luminescence. To compare anti-proliferative effect of compounds, GI50 was obtained by fitting dose response curves with nonlinear regression curve fit.

[3] = molecular target: T1, TEAD1 protein (YAP Binding Domain) (Homo sapiens, UniProt P28347); assay: biochemical
T1 sequence (P28347 167-426 limits assumed): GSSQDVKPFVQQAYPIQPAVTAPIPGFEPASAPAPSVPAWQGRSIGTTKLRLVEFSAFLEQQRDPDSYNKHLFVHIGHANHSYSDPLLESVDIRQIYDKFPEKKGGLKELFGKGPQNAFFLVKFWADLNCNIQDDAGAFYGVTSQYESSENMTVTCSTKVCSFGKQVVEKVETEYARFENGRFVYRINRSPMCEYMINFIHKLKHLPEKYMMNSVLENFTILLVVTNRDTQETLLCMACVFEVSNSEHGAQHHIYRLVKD
Description: Compound Displacement Assay.
(§1) A TEAD1 lipid pocket displacement assay was carried out according to the following protocol. Purified His-tagged TEAD1 protein (YAP Binding Domain) was pre-mixed with a Cy5-probe (Cy5-conjugated to a small molecule that binds in the TEAD1 lipid pocket) and Terbium-labeled anti-His antibody (Cisbio Cat 61HI2TLB). The binding of the Cy5-probe to anti-His-Tb/His-tag TEAD1 complex yielded a TR-FRET signal. […] After 60 minutes incubation at room temperature of compounds with the His-TEAD1/anti-His-Tb/Cy5-probe complex, the plate was read on a plate reader (BMG ClarioStar Cat 430-1300) using TR-FRET mode with wavelengths of 665 nm/620 nm. The potency of compounds as TEAD1 lipid pocket binders was determined by IC50 value generated using a non-linear 4 parameter curve fit.

[4] = molecular target: T1, TEAD1 protein (YAP Binding Domain); assay: TEAD1 lipid pocket compound displacement assay (CDA, TR-FRET); conditions: read-out: CDA IC50, displacement of Cy5-probe from His-TEAD1, 60 minutes at room temperature
Description: Compound Displacement Assay.
as §1

SMILES | GI50 [2] [nM] | IC50 [3] [nM] | other results
C=CC(=O)Nc1cc(Nc2nccc(-c3cn(C)c4ccccc34)n2)c(OC)cc1N(C)CCN(C)C [Osimertinib, reference compound] | – | – | Fold Change over DMSO at 48 hrs (apoptotic index) ([1]; Osimertinib (100 nM) alone): 2.6
COc1cc(N2CCC(C(F)(F)F)CC2)c2ncc(C(=O)N[C@H](C)CO)cc2c1 [Compound I-1, (R)-N-(1-hydroxypropan-2-yl)-6-methoxy-8-(4-(trifluoromethyl)piperidin-1-yl)quinoline-3-carboxamide] | 500 to 1000 | 150 to 300 | Fold Change over DMSO at 48 hrs (apoptotic index) ([1]; I-1 (10 μM) alone): 1.0; Fold Change over DMSO at 48 hrs (apoptotic index) ([1]; Osimertinib (100 nM) + I-1 (0.37 μM), 24 h Osimertinib pre-treatment): 4.1; Fold Change over DMSO at 48 hrs (apoptotic index) ([1]; Osimertinib (100 nM) + I-1 (1.1 μM), 24 h Osimertinib pre-treatment): 5.4; Fold Change over DMSO at 48 hrs (apoptotic index) ([1]; Osimertinib (100 nM) + I-1 (10 μM), 24 h Osimertinib pre-treatment): 7.0
COc1ccc2c(N3CCC(C(F)(F)F)CC3)nc(C(N)=O)cc2c1 [Compound 66] | 1000 to 5000 | – | IC50 [4]: < 150 nM
COc1cc(N2CCC(C(F)(F)F)CC2)c2ncc(C(=O)N[C@@H](C)c3cccc(C(=O)O)c3)cc2c1 [Compound I-43, (S)-3-(1-(6-methoxy-8-(4-(trifluoromethyl)piperidin-1-yl)quinoline-3-carboxamido)ethyl)benzoic acid] | > 5000 | < 150 | –
COc1cc(-c2ccc(OCC(F)(F)F)cc2)c2ncc(C(=O)N[C@H](C)CO)cc2c1 [Compound I-18, (R)-N-(1-hydroxypropan-2-yl)-6-methoxy-8-(4-(2,2,2-trifluoroethoxy)phenyl)quinoline-3-carboxamide] | 1000 to 5000 | 150 to 300 | –
C#Cc1ccc(-c2cccc3cc(C(=O)N[C@@H](C)c4ccccn4)cnc23)cc1 [I′-29, (S)-8-(4-ethynylphenyl)-N-(1-(pyridin-2-yl)ethyl)quinoline-3-carboxamide] | 1000 to 5000 | < 150 | –
C[C@H](NC(=O)c1cnc2c(C#CC(C)(C)C)cccc2c1)c1ccccn1 [Compound 31, (S)-8-(3,3-dimethylbut-1-yn-1-yl)-N-(1-(pyridin-2-yl)ethyl)quinoline-3-carboxamide] | 1000 to 5000 | > 500 | –
COc1cc(N2CCC(C(F)(F)F)CC2)c2ncc(C(=O)N[C@@H](C)COC(F)(F)F)cc2c1 [Compound I-12, (S)-6-methoxy-N-(1-(trifluoromethoxy)propan-2-yl)-8-(4-(trifluoromethyl)piperidin-1-yl)quinoline-3-carboxamide] | ≤ 500 | > 500 | –
COc1ccc2c(N3CCC(C(F)(F)F)CC3)nc(C(=O)N[C@H](C)CO)cc2c1 [Compound 67, (R)-N-(1-hydroxypropan-2-yl)-6-methoxy-1-(4-(trifluoromethyl)piperidin-1-yl)isoquinoline-3-carboxamide] | > 5000 | > 500 | –
C[C@H](CO)NC(=O)c1ccc2c(N3CCC(C(F)(F)F)CC3)nccc2c1 [Compound I-63, (R)-N-(1-hydroxypropan-2-yl)-1-(4-(trifluoromethyl)piperidin-1-yl)isoquinoline-6-carboxamide] | 1000 to 5000 | 300 to 500 | –
COc1cccc([C@H](C)NC(=O)c2cnc3c(N4CCC(C(F)(F)F)CC4)cc(OC)cc3c2)c1 [Compound I-39, (S)-6-methoxy-N-(1-(3-methoxyphenyl)ethyl)-8-(4-(trifluoromethyl)piperidin-1-yl)quinoline-3-carboxamide] | ≤ 500 | > 500 | –
COC[C@H](C)NC(=O)c1cnc2c(N3CCC(CC(F)(F)F)CC3)cc(OC)cc2c1 [Compound I-5, (S)-6-methoxy-N-(1-methoxypropan-2-yl)-8-(4-(2,2,2-trifluoroethyl)piperidin-1-yl)quinoline-3-carboxamide] | 1000 to 5000 | < 150 | –
COc1cc(-c2ccc(Oc3ccccc3)cc2)c2ncc(C(=O)N[C@H](C)CO)cc2c1 [Compound I-19, (R)-N-(1-hydroxypropan-2-yl)-6-methoxy-8-(4-phenoxyphenyl)quinoline-3-carboxamide] | > 5000 | 150 to 300 | –
COc1cc(N2CCC(C(F)(F)F)CC2)c2ncc(C(=O)N[C@@H](C)c3ccccn3)cc2c1 [Compound I-37, (S)-6-methoxy-N-(1-(pyridin-2-yl)ethyl)-8-(4-(trifluoromethyl)piperidin-1-yl)quinoline-3-carboxamide] | ≤ 500 | 150 to 300 | –
CC(NC(=O)c1cnc2c(OCC3CCC(F)(F)CC3)cccc2c1)c1ccccn1 (stereo not drawn) [Compound I-46, 8-((4,4-Difluorocyclohexyl)methoxy)-N-(1-(pyridin-2-yl)ethyl)quinoline-3-carboxamide] | 1000 to 5000 | 300 to 500 | –
